The values that follow come from the supplement of paper PMC10307832.

Assay in all cases: relative viability (nuclei count vs DMSO), 5 days (fraction); higher = more cells survive
Compound in assay [1]: c1ccc2c(CCNc3ccc(Nc4ccncc4)cc3)c[nH]c2c1 [Serdemetan] + N=C(N)NC(=N)NCCc1ccccc1 [Phenformin] (partner 250 µM)
The essentials:
(§1)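 Values are medians from duplicate plates. Each reflects relative viability, defined as the nuclei count of treated wells over that of vehicle wells. Lung cancer cell lines in 1536-well plates were pin-tool dosed one day after seeding with one drug alone or with a fixed anchor-drug dose plus five library-drug doses (not always all listed) in √10 steps, then fixed, stained and imaged at 4× after 5 days.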

Compound in assay [2]: c1ccc2c(CCNc3ccc(Nc4ccncc4)cc3)c[nH]c2c1 [Serdemetan] + Cc1nc(NC(=O)N2CCC[C@H]2C(N)=O)sc1-c1ccnc(C(C)(C)C(F)(F)F)c1 [Alpelisib] (partner 2 µM)
The method, boiled down:
as §1

Compound in assay [3]: c1ccc2c(CCNc3ccc(Nc4ccncc4)cc3)c[nH]c2c1 [Serdemetan] + Cc1cc(Nc2cc(N3CCN(C)CC3)nc(Sc3ccc(NC(=O)C4CC4)cc3)n2)n[nH]1 [Tozasertib] (partner 0.1 µM)
The essentials: as §1

Compound in assay [4]: c1ccc2c(CCNc3ccc(Nc4ccncc4)cc3)c[nH]c2c1 [Serdemetan] + CC(=O)c1c(C)c2cnc(Nc3ccc(N4CCNCC4)cn3)nc2n(C2CCCC2)c1=O [Palbociclib] (partner 0.5 µM)
The essentials: as §1

As to 201T, the relative viability worked out at 0.435 in assay [1] (first compound 0.04 µM); 0.451 in assay [1] (first compound 0.1265 µM); 0.432 in assay [1] (first compound 0.4 µM); 0.353 in assay [1] (first compound 1.265 µM); 0.432 in assay [1] (first compound 4 µM); 0.965 in assay [2] (first compound 0.04 µM). For the same cell line, the relative viability was found to be 0.995 in assay [2] (first compound 0.1265 µM); 1.01 in assay [2] (first compound 0.4 µM); 0.939 in assay [2] (first compound 1.265 µM); 0.883 in assay [2] (first compound 4 µM); 0.983 in assay [3] (first compound 0.04 µM); 0.939 in assay [3] (first compound 0.1265 µM). For the same cell line, the relative viability was 0.925 in assay [3] (first compound 0.4 µM); 0.787 in assay [3] (first compound 1.265 µM); 0.497 in assay [3] (first compound 4 µM); 0.367 in assay [4] (first compound 0.04 µM); 0.353 in assay [4] (first compound 0.1265 µM); 0.341 in assay [4] (first compound 0.4 µM). For the same cell line, the relative viability in assay [4] (first compound 1.265 µM) was determined as 0.33; in assay [4] (first compound 4 µM) it was 0.327.

For the cell line A549, the relative viability in assay [1] (first compound 0.04 µM) is 0.0903; in assay [1] (first compound 0.1265 µM), 0.163; in assay [1] (first compound 0.4 µM), 0.209; in assay [1] (first compound 1.265 µM), 0.0895; in assay [1] (first compound 4 µM), 0.0987; in assay [2] (first compound 0.04 µM), 0.753. Further, the relative viability in assay [2] (first compound 0.1265 µM) is 0.722; in assay [2] (first compound 0.4 µM) it was 0.727; in assay [2] (first compound 1.265 µM) it was 0.569; in assay [2] (first compound 4 µM), 0.252.

On to A-427, for which the relative viability in assay [1] (first compound 0.04 µM) was determined as 0.29; in assay [1] (first compound 0.1265 µM), 0.279; in assay [1] (first compound 0.4 µM), 0.273; in assay [1] (first compound 1.265 µM), 0.189; in assay [1] (first compound 4 µM) it was 0.198; in assay [2] (first compound 0.04 µM), 1.05. Besides, the relative viability was 1.05 in assay [2] (first compound 0.1265 µM); 1.1 in assay [2] (first compound 0.4 µM); 0.833 in assay [2] (first compound 1.265 µM); 0.561 in assay [2] (first compound 4 µM); 0.2 in assay [3] (first compound 0.04 µM); 0.198 in assay [3] (first compound 0.1265 µM). Besides, the relative viability was determined as 0.192 in assay [3] (first compound 0.4 µM); 0.165 in assay [3] (first compound 1.265 µM); 0.16 in assay [3] (first compound 4 µM); 0.533 in assay [4] (first compound 0.04 µM); 0.497 in assay [4] (first compound 0.1265 µM); 0.525 in assay [4] (first compound 0.4 µM). Also, the relative viability was determined as 0.462 in assay [4] (first compound 1.265 µM) and 0.444 in assay [4] (first compound 4 µM).

Turning to ABC-1, the relative viability in assay [1] (first compound 0.04 µM) came to 0.229; in assay [1] (first compound 0.1265 µM), 0.235; in assay [1] (first compound 0.4 µM), 0.197; in assay [1] (first compound 1.265 µM) it was 0.204; in assay [1] (first compound 4 µM), 0.224; in assay [2] (first compound 0.04 µM), 1.16. Moreover, the relative viability stood at 1.14 in assay [2] (first compound 0.1265 µM); 0.965 in assay [2] (first compound 0.4 µM); 0.812 in assay [2] (first compound 1.265 µM); 0.486 in assay [2] (first compound 4 µM); 0.132 in assay [3] (first compound 0.04 µM); 0.171 in assay [3] (first compound 0.1265 µM). The relative viability in assay [3] (first compound 0.4 µM) amounted to 0.182; in assay [3] (first compound 1.265 µM), 0.177; in assay [3] (first compound 4 µM) it was 0.162; in assay [4] (first compound 0.04 µM), 0.553; in assay [4] (first compound 0.1265 µM), 0.586; in assay [4] (first compound 0.4 µM), 0.694. The figures for the relative viability in assay [4] (first compound 1.265 µM) and in assay [4] (first compound 4 µM) were 0.611 and 0.459, respectively.

For BEN, the relative viability in assay [1] (first compound 0.04 µM) was determined as 0.283; in assay [1] (first compound 0.1265 µM), 0.252; in assay [1] (first compound 0.4 µM) it was 0.271; in assay [1] (first compound 4 µM), 0.267; in assay [2] (first compound 0.04 µM), 0.929; in assay [2] (first compound 0.1265 µM), 1.02. In addition, the relative viability in assay [2] (first compound 0.4 µM) was 0.987; in assay [2] (first compound 1.265 µM) it was 0.99; in assay [2] (first compound 4 µM) it was 0.824; in assay [3] (first compound 0.04 µM), 0.451; in assay [3] (first compound 0.1265 µM) it was 0.477; in assay [3] (first compound 0.4 µM) it was 0.531. The relative viability amounted to 0.478 in assay [3] (first compound 1.265 µM); 0.469 in assay [3] (first compound 4 µM); 0.513 in assay [4] (first compound 0.04 µM); 0.494 in assay [4] (first compound 0.1265 µM); 0.504 in assay [4] (first compound 0.4 µM); 0.365 in assay [4] (first compound 1.265 µM). The relative viability in assay [4] (first compound 4 µM) amounted to 0.449.

Turning to CAL-12T, the relative viability in assay [1] (first compound 0.04 µM) came to 0.508; in assay [1] (first compound 0.1265 µM) it was 0.632; in assay [1] (first compound 0.4 µM) it was 0.502; in assay [1] (first compound 1.265 µM) it was 0.562; in assay [1] (first compound 4 µM), 0.561; in assay [2] (first compound 0.04 µM), 1.11. The relative viability came to 1.5 in assay [2] (first compound 0.1265 µM); 1.23 in assay [2] (first compound 0.4 µM); 1.18 in assay [2] (first compound 4 µM); 0.272 in assay [3] (first compound 0.04 µM); 0.318 in assay [3] (first compound 0.1265 µM); 0.246 in assay [3] (first compound 0.4 µM). The relative viability in assay [3] (first compound 1.265 µM) was 0.309; in assay [3] (first compound 4 µM), 0.327; in assay [4] (first compound 0.04 µM), 0.467; in assay [4] (first compound 0.1265 µM), 0.422; in assay [4] (first compound 0.4 µM), 0.35; in assay [4] (first compound 1.265 µM) it was 0.424. For the same cell line, in assay [4] (first compound 4 µM), the relative viability turned out to be 0.539.

With COR-L23, the relative viability in assay [1] (first compound 0.04 µM) stood at 0.448; in assay [1] (first compound 0.1265 µM) it was 0.468; in assay [1] (first compound 0.4 µM), 0.427; in assay [1] (first compound 1.265 µM), 0.414; in assay [1] (first compound 4 µM) it was 0.42; in assay [2] (first compound 0.04 µM), 0.788. For the same cell line, the relative viability came to 0.767 in assay [2] (first compound 0.1265 µM); 0.763 in assay [2] (first compound 0.4 µM); 0.821 in assay [2] (first compound 1.265 µM); 0.703 in assay [2] (first compound 4 µM); 0.236 in assay [3] (first compound 0.04 µM); 0.201 in assay [3] (first compound 0.1265 µM). The relative viability in assay [3] (first compound 0.4 µM) came out at 0.224; in assay [3] (first compound 1.265 µM), 0.174; in assay [3] (first compound 4 µM), 0.165; in assay [4] (first compound 0.04 µM), 0.235; in assay [4] (first compound 0.1265 µM), 0.3; in assay [4] (first compound 0.4 µM) it was 0.349. The relative viability in assay [4] (first compound 1.265 µM) was 0.213; in assay [4] (first compound 4 µM), 0.236.
